Data from patent publication US5116851A, “Pharmaceutical composition and method for treating cardiovascular diseases using substituted anilides and sulfonamides” (E. R. Squibb & Sons, Inc., priority 1990, dated 1992).
pIC50: −log10 of the molar value.

How the values were obtained:
rabbit aorta = experiment: Reduction of tone of rabbit aorta by high potassium (Vasc. Ca^++ Block); format: cell-based; settings: Oryctolagus cuniculus; read-out: IC50 in reducing tone of rabbit aorta by high potassium (Vasc. Ca^++ Block)
Excerpt: |(SAPA), in reducing maximum upstroke velocity (Vmax) |and in reducing tone of rabbit aorta by high potassium |(Vasc. Ca^++ Block)

[1] = test system: Ischemic and Nonischemic Isolated Rat Heart; experiment: Isolated perfused rat heart (Langendorff), global ischemia/reperfusion: cardiac function, flow and LDH release; design: species or system rat (male Sprague-Dawley); FLOW (coronary blood flow): unit not given here; settings: 1 μM; for LDH (Lactate Dehydrogenase Release): Postischemia, cumulative over 30 min reperfusion, per g preischemia heart weight, lower = greater cardioprotection; for cardioprotection compared with diltiazem: post-ischemia LDH; for LDH/DP: ratio of cardioprotection to cardiodepression, lower = greater selectivity
Protocol: Lactate dehydrogenase is an enzyme released in the heart during an ischemic event and is an index of cardiac cell necrosis. In the Grover et al. model, this is measured during reperfusion and an agent which provides for lower release levels of LDH is considered to offer greater cardioprotection since lower LDH indicates a smaller infarct size. Cardiac function is determined using the double product (DP) of heart rate times the left ventricular developed pressure (LVDP) divided by 1,000.
The lower the value for DP before ischemia for a given agent, the more cardiodepressant it is considered to be.
Male Sprague-Dawley rats (450-550 g) were used in all experiments. The rats were anesthetized using 30 mg/kg sodium pentobarbital (i.p.). They were intubated and then treated with i.v. heparin (1000 U/kg). While being mechanically ventilated, their hearts were perfused in situ via retrograde cannulation of the aorta. The hearts were then excised and quickly moved to a Langendorff apparatus where they were perfused with Krebs-Henseleit bicarbonate buffer (112 mM NaCl, 5 mM KCl, 1.2 mMMg SO4, 1 mM KH2 PO4, 1.25 mM CaCl2, 11.5 mM dextrose, and 2 mM pyruvate) at a constant pressure (75 mm Hg). A water filled latex balloon attached to a metal cannula was then inserted into the left ventricle and connected to a Statham pressure transducer for measurement of left ventricular pressure. The hearts were allowed to equilibrate for 15 minutes at which time end diastolic pressure (EDP) was adjusted to 5 mm Hg and this was maintained for 5 minutes. Pre-ischemia or pre-drug function, heart rate and coronary blood flow (extracorporeal electromagnetic flow probe, Carolina Medical Electronics, King, N.C.) were then measured. Cardiac function was determined using the double product of heart rate (HR) times left ventricular developed pressure (LVDP) divided by 1,000.
All of these hearts were treated with their respective drugs or vehicle for ten minutes. At this time, post-drug cardiac function and flow were measured and then the hearts were made globally ischemic by shutting off the buffer perfusion. The ischemia was maintained for 25 minutes at which time reperfusion with nondrug treated buffer was instituted. Reperfusion was maintained for 30 minutes and at this time reperfusion function and flow were again determined.
At the end of the reperfusion period, the reperfusion buffer was sampled for cumulative LDH release as previously described. LDH release was expressed as U/g preischemia heart weight for the 30 minute collection period. LDH release is a sensitive index for loss of cell viability. Determination of the relationship between pre-ischemic, post-drug cardiac function was made by dividing the double product (HR ×LVDP/1000) by the cumulative LDH release.
All data were analyzed using a one way analysis of variance. Multiple comparisons were done using the Duncan procedure. All data are expressed as the mean±SE.
The pre-ischemia DP values are a measure of the cardiodepression of the drug on the healthy cardiac tissue.
The post-ischemia LDH values are a measure of the cardioprotection or anti-ischemic activity of the drug. In this case, lower values indicate greater anti-ischemic activity or greater cardioprotection.
The LDH/DP values are the ratio of cardioprotection to cardiodepression, the lower values indicating a greater selectivity for anti-ischemic activity.
The post-ischemia DP indicates cardiodepression after the ischemic episode and the lower DP values here are indicative of agents which still remained in the cardiac tissue for more than 30 minutes post ischemia. [drawing 16]

[2] = test system: isolated canine cardiac Purkinje fibers; experiment: Calcium-dependent slow response action potential amplitude (SAPA), standard microelectrode techniques; format: cell-based; settings: Canis lupus familiaris, read-out: IC50 in reducing slow response action potential amplitude (SAPA)
Protocol: (§1) The calcium channel blocking and sodium entry blocking activities of compounds of the present invention were tested using standard microelectrode techniques in isolated canine cardiac Purkinje fibers as reported in J. L. Bergey et al., "Antiarrhythmic, hemodynamic, and cardiac electrophysiological evaluation of N-(2,6-dimethylphenyl)-N'-[3-(1-methylethylamino)propyl]-urea), (Wy 42,362)", Arzneim -Forsch, 33:1258, 1983). […] Depression of this parameter indicates depression of calcium entry into cardiac tissue. […] Significant depression of the upstroke velocity (vmax) indicates the blocking of sodium entry into cardiac tissue.

[3] = test system: isolated canine cardiac Purkinje fibers; experiment: Normal action potential parameters incl. upstroke velocity (Vmax; sodium entry), standard microelectrode techniques; format: cell-based; settings: for Vmax (velocity of upstroke): in V/s (unit assumed); for pIC50: Canis lupus familiaris, purkinje, sodium entry, read-out: IC50 in reducing maximum upstroke velocity (Vmax)
Protocol: as §1

[4] = test system: 24 hour post-infarction arrhythmias in dogs; experiment: Antiarrhythmic activity in standard canine arrhythmia model (24 hour post-infarction arrhythmias); format: in vivo, dog; settings: intravenous doses ranging from 6 to 15 mg/kg
Protocol: Antiarrhythmic activity was confirmed for the compound of Example 1 using a standard canine arrhythmia model as reported in J. L. Bergey et al., "Antiarrhythmic, hemodynamic, and cardiac electrophysiological evaluation of N-(2,6-dimethylphenyl)-N'-[3-(1-methylethylamino)propyl]urea), (Wy 42,362)", Arzneim -Forsch, 33:1258, 1983). In dogs suffering from 24 hour post-infarction arrhythmias the compound of Example 1 reversed arrhythmias in 5 out of 5 dogs tested following intravenous doses ranging from 6 to 15 mg/kg.

[5] = Postischemia (30 min.), occlusion 25 minutes, reperfusion 30 minutes
[6] = Preischemia (Post Drug), lower = more cardiodepressant

Row | Compound | pIC50 (rabbit aorta) | DP (Double Product, HR x LVDP / 1,000) [1, 5] | FLOW (coronary blood flow) [1, 5] | HR (Heart Rate) [1, 5] [beats/min] | LVDP (Left Ventricular Developed Pressure) [1, 5] [mmHg] | LDH (Lactate Dehydrogenase Release) [1] [U/g] | FLOW (coronary blood flow) ([1]; Preischemia (Post Drug)) | HR (Heart Rate) ([1]; Preischemia (Post Drug)) [beats/min] | LVDP (Left Ventricular Developed Pressure) ([1]; Preischemia (Post Drug)) [mmHg] | DP (Double Product, HR x LVDP / 1,000) [1, 6] | cardioprotection compared with diltiazem [1] | LDH/DP [1] | pIC50 [2] | APD 50 (action potential duration @ 50% repolarization) ([3]; 1 × 10^-5) | APD90 (action potential duration @ 90% repolarization) ([3]; 1 × 10^-5) | PP (peak potential) ([3]; 1 × 10^-5) | RP (resting potential) ([3]; 1 × 10^-5) | Vmax (velocity of upstroke) ([3]; 1 × 10^-5) | APD 50 (action potential duration @ 50% repolarization) ([3]; 1 × 10^-6) | APD90 (action potential duration @ 90% repolarization) ([3]; 1 × 10^-6) | other results
1 | CN(C)CCCN(C(=O)Cc1ccccc1)c1ccccc1SCc1ccc(Cl)cc1 [Example 1, N-[2-[[(4-Chlorophenyl)methyl]thio]phenyl]-N-[3-(dimethylamino)propyl]benzeneacetamide] | 5.80 | 7 | 12 | 211 | 34 | 12 | 25 | 229 | 90 | 21 | comparable to diltiazem in cardioprotection | 0.55 | < 5.00 | 160 ± 3 | 320 ± 3 | 11 ± 2 | 89 ± 1 | 203 ± 19 | 219 ± 3 | 320 ± 3 | PP (peak potential) ([3]; 1 × 10^-6): 35 ± 1; RP (resting potential) ([3]; 1 × 10^-6): 94 ± 1; Vmax (velocity of upstroke) ([3]; 1 × 10^-6): 443 ± 7; APD 50 (action potential duration @ 50% repolarization) ([3]; 3 × 10^-6): 154 ± 3; APD90 (action potential duration @ 90% repolarization) ([3]; 3 × 10^-6): 305 ± 4; PP (peak potential) ([3]; 3 × 10^-6): 28 ± 1; RP (resting potential) ([3]; 3 × 10^-6): 89 ± 1; Vmax (velocity of upstroke) ([3]; 3 × 10^-6): 375 ± 11; pIC50 [3]: 5.17; reversed arrhythmias (dogs tested) [4]: 5 out of 5
2 | CN(C)CCCN(C(=O)Cc1ccccc1)c1ccccc1SCc1ccccc1.Cl [Example 3, N-[3-(Dimethylamino)propyl]-N-[2-[(phenylmethyl)thio]phenyl]benzeneacetamide, monohydrochloride] | 5.77 | 22 | 11 | 238 | 93 | 5.2 | 18 | 243 | 79 | 19 | offered more cardioprotection than diltiazem | 0.30 | 5.82 | 123 ± 2 | 271 ± 8 | 7 ± 1 | 84 ± 1 | 156 ± 11 | 181 ± 5 | 282 ± 2 | PP (peak potential) ([3]; 1 × 10^-6): 32 ± 1; RP (resting potential) ([3]; 1 × 10^-6): 88 ± 1; Vmax (velocity of upstroke) ([3]; 1 × 10^-6): 401 ± 16; APD 50 (action potential duration @ 50% repolarization) ([3]; 3 × 10^-6): 125 ± 3; APD90 (action potential duration @ 90% repolarization) ([3]; 3 × 10^-6): 251 ± 1; PP (peak potential) ([3]; 3 × 10^-6): 26 ± 1; RP (resting potential) ([3]; 3 × 10^-6): 88 ± 1; Vmax (velocity of upstroke) ([3]; 3 × 10^-6): 286 ± 9; pIC50 [3]: 5.42
